Patent publication US12685731B2, “Organic compounds” (INTRA-CELLULAR THERAPIES, INC., priority 2018, dated 2026)
Read-outs that look alike come from different tables or passages of the source.

What was measured:
[1] = Measurement of parent and metabolite levels in mice (plasma and brain levels after single oral co-dosing); format: in vivo; conditions: for Cmax / Tmax / AUC / concentration at […] / concentration at 0.5 h / concentration at 1 h / concentration at 2 h / concentration at 4 h: mouse, single dose oral, co-dosed; for AUC: 0.25-4 hr sampling; for concentration at […]: 0.25 hr
Description: The compound of Example 1 and the compound of Formula Q are co-dosed in mice (n=3), and the levels of the both compounds are studied. Procedures for the synthesis of the compound of Formula Q can be found in WO 2008/112280. […] The mean values for maximum concentration, time to maximum concentration, and Area Under the Curve (AUC) for both compounds is determined.

[2] = tested on: serotonin receptor (e.g., 5-HT2A); experiment: Receptor binding studies, serotonin receptor
serotonin transporter = serotonin transporter (Homo sapiens, UniProt P31645); experiment: Receptor binding studies, serotonin transporter
Sequence of serotonin transporter (P31645 whole entry): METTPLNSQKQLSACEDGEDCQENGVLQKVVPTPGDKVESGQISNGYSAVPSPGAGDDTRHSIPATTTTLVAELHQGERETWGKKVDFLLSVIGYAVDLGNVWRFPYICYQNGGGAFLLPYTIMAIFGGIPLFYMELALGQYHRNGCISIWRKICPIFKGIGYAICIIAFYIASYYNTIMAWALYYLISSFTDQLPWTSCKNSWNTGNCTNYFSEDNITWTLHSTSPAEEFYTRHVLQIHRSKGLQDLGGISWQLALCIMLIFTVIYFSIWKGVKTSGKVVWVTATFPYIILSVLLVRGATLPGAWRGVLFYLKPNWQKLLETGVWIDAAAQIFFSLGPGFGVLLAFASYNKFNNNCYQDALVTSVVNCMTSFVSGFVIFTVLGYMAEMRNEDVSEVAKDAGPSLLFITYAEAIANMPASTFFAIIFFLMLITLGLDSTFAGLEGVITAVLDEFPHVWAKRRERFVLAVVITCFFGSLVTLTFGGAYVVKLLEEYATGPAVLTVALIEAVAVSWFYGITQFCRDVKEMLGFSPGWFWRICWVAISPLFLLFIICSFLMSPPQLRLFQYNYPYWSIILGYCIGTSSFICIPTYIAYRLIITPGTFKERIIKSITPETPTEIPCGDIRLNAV

[3] = tested on: dopamine receptor (e.g., D2); experiment: Receptor binding studies, dopamine receptor
[4] = mean n=3, brain, read-out: Brain level
[5] = mean n=3, plasma, read-out: Plasma level

Structure (SMILES) | Metabolic clearance compared to the compound of Formula Q ([1]; concluded from higher Cmax and AUC values) | Cmax ([1]; brain) [ng/g] | Tmax ([1]; brain) [min] | AUC ([1]; brain) [ng·h/mL] | concentration at […] [1, 4] [ng/g] | concentration at 0.5 h [1, 4] [ng/g] | concentration at 1 h [1, 4] [ng/g] | concentration at 2 h [1, 4] [ng/g] | concentration at 4 h [1, 4] [ng/g] | concentration at […] [1, 5] [ng/mL] | concentration at 0.5 h [1, 5] [ng/mL] | concentration at 1 h [1, 5] [ng/mL] | concentration at 2 h [1, 5] [ng/mL] | concentration at 4 h [1, 5] [ng/mL] | Cmax ([1]; plasma) [ng/mL] | Tmax ([1]; plasma) [min] | AUC ([1]; plasma) [ng·h/mL] | Receptor binding profile compared to the compound of Formula Q [2] | Receptor binding profile compared to the compound of Formula Q (serotonin transporter) | Receptor binding profile compared to the compound of Formula Q [3]
[2H]C1([2H])N(C)c2cccc3c2N([C@H]2CCN(CCCC(=O)c4ccc(F)cc4)C[C@@H]32)C1([2H])[2H] [Example 1, 1-(4-fluorophenyl)-4-((6bR,10aS)-1,1,2,2-tetradeuterio-3-methyl-2,3,6b,7,10,10a-hexahydro-1H-pyrido[3′,4′:4,5]pyrrolo[1,2,3-de]quinoxalin-8(9H)-yl) butan-1-one p-toluenesulfonate] | reduced metabolic clearance | 402 | 30 | 404 | 238 | 402 | 39.4 | 67.7 | 62.1 | 30.4 | 38.1 | 11.6 | 31.4 | 16.8 | 38.1 | 30 | 94.5 | substantially the same receptor binding profile | substantially the same receptor binding profile | substantially the same receptor binding profile
CN1CCN2c3c(cccc31)[C@@H]1CN(CCCC(=O)c3ccc(F)cc3)CC[C@@H]12 [Formula Q, reference compound] |  | 384 | 30 | 387 | 228 | 384 | 37.9 | 65.6 | 58.8 | 28.2 | 34.9 | 11 | 29.9 | 16.3 | 34.9 | 30 | 89.5 |  |  | 
